Laboratory results reported in patent US8389573B2, “Glycyrrhetinic acid derivatives” (Wellington Laboratories Inc., priority 2006, dated 2013).

Tests used:
[1] = test system: Sp1, Sp3 and Sp4 in liver; assay: Sp protein expression in non-target tissue (liver) of treated mice; assay type: in vivo; conditions: preliminary results
Description: (i) Animal treatment: Male athymic nude mice are obtained from commercial sources and their use approved by the Institutional Animal Care and Use Committee. Ten animals are used for each treatment group and based on consultation with biostatisticians, this number is sufficient for determining statistical significance between treatment groups (41, 42). At least one AR-positive (LNCaP/22Rv1) and AR-negative (PC3/DU145) prostate cancer cell line is used in the xenograft study. Cells are harvested by exposure to trypsin and resuspended in serum-free Hanks' balanced salt solution (HBSS). […] In addition, Western blot analysis of Sp proteins, proapoptotic and antiangiogenic responses is determined on whole cell lysates from compound- and corn oil (vehicle)-treated tumors. Where possible (depending on the amount of protein extracted), the effects of the compound versus corn oil on expression of these proteins is quantitated and statistically analyzed. In addition, the effects of the compound on Sp protein expression in non-target tissue (e.g. liver and kidney) is determined. […] Immunostaining for Sp1, Sp3 and Sp4 and for angiogenic (VEGF, VEGFR1 and VEGFR2) and apoptotic (cleaved PARP, activated caspase 3, survivin and TUNEL) proteins/responses are determined as described above.

[2] = test system: LNCaP cells; assay: Western blot analysis and DNA fragmentation assay in LNCaP cells; assay type: cell-based, human; conditions: 2.5 μM β-CDODA-Me, 24 hr
Method: Cell Proliferation and DNA Fragmentation Assays: LNCaP prostate cancer cells (2×10^4 per well) were added to 12-well plates and allowed to attach for 24 hr. The medium was then changed to DMEM/Ham's F-12 media containing 2.5% charcoal-stripped FBS, and either vehicle (DMSO) or the indicated C-DIMs were added. Fresh medium and indicated compounds were added every 48 hr, and cells were then trypsinized and counted after 2, 4, and 6 days using a Coulter Z1 cell counter (Beckman Coulter, Fullerton, Calif.). Each experiment was done in triplicate, and results are expressed as means±S.E. for each set of three experiments. The DNA fragmentation assay was performed using a BioVision Apoptotic DNA ladder extraction kit (BioVision, Mountain View, Calif.) according to the manufacturer's protocol.
Western Blot Analysis: Cells were seeded in DMEM:Ham's F-12 media containing 2.5% charcoal-stripped FBS for 24 hr and then treated with either the vehicle (DMSO) or the indicated compounds. Cells were collected by scraping in 150 μl high salt lysis buffer (50 mM HEPES, 0.5 M NaCl, 1.5 mM MgCl2, 1 mM EGTA, 10% (v/v) glycerol, 1% (v/v) Triton-X-100 and 5 μL/ml of Protease Inhibitor Cocktail (Sigma). The lysates were incubated on ice for 1 hr with intermittent vortexing followed by centrifugation at 20,000 g for 10 min at 4° C. Before electrophoresis, samples were boiled for 3 min at 100° C.; the amount of protein was determined and 60 μg protein applied per lane. Samples were subjected to SDS-PAGE on 10% gel at 120 V for 3 to 4 hr. Proteins were transferred on to polyvinylidene difluoride membrane (PVDF; Bio-Rad, Hercules, Calif.) at 0.9 amp for 90 min at 4° C. in 1× transfer buffer (48 mM Tris-HCl, 39 mM glycine, and 0.025% SDS). The membranes were blocked for 30 min with 5% TBST-Blotto (10 mM Tris-HCl, 150 mM NaCl (pH 8.0), 0.05% Triton X-100 and 5% non-fat dry milk) and incubated in fresh 5% TBST-Blotto with primary antibody overnight with gentle shaking at 4° C. After washing with TBST for 10 min, the PVDF membrane was incubated with secondary antibody (1:5000) in 5% TBST-Blotto for 2-3 hr. The membrane was washed with TBST for 10 min and incubated with 10 ml of chemiluminescence substrate (PerkinElmer Life Sciences) for 1.0 min and exposed to ImageTeK-H medical imaging film (Eastman American X-ray Supply, Inc.).

[3] = test system: p21 promoter; assay: p21 promoter construct luciferase assay in LNCaP cells; assay type: cell-based; conditions: 10 μM PD98059
[4] = test system: PPARγ; conditions: SW480 cells, previous studies (22); cited from earlier work
[5] = biological target: T1, PPARγ-coactivator interactions (Homo sapiens, UniProt P37231); conditions: SW480 cells, reference (22); cited from earlier work
T1 construct: expressed in transfected cells; host or cells: SW480 cells, transient transfection (LipofectAMINE)
T1 sequence (P37231 238-503 limits assumed): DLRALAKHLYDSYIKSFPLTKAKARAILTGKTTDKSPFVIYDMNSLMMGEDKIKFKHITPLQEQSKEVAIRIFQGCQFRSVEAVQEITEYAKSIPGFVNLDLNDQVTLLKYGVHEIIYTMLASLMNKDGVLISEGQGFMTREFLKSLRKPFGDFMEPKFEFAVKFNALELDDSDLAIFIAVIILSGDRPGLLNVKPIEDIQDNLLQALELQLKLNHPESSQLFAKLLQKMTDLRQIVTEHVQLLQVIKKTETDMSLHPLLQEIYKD

[6] = test system: SW480 cells; assay: Western blot analysis in SW480 cells; assay type: cell-based, human; conditions: SW480, treatment for 3 days
Method: SW-480 and HT-29 (3×10^5) cells were seeded in six-well plates in DMEM/Ham's F-12 media containing 2.5% charcoal-stripped FBS for 24 h and then treated with either the vehicle (DMSO) or the indicated compounds. Whole-cell lysates were obtained using high-salt buffer [50 mM HEPES, 500 mM NaCl, 1.5 mM MgCl2, 1 mM EGTA, 10% glycerol, and 1% Triton X-100, pH 7.5, and 5 μl/ml Protease Inhibitor Cocktail (Sigma-Aldrich)]. Protein samples were incubated at 100° C. for 2 min, separated on 10% SDS-PAGE at 120 V for 3 to 4 h in 1× running buffer (25 mM Tris-base, 192 mM glycine, and 0.1% SDS, pH 8.3), and transferred to polyvinylidene difluoride membrane (PVDF; Bio-Rad, Hercules, Calif.) at […] for 16 h at 4° C. in 1× transfer buffer (48 mM Tris-HCl, 39 mM glycine, and 0.025% SDS). The PVDF membrane was blocked in 5% TBST-Blotto (10 mM Tris-HCl, 150 mM NaCl, pH 8.0, 0.05% Triton X-100, and 5% nonfat dry milk) with gentle shaking for 30 min and was incubated in fresh 5% TBST-Blotto with 1:1000 (for caveolin-1, p27, p21, cyclin D1, Grp78), 1:500 (for KLF4, NAG-1), 1:250 (for PARP), and 1:5000 (for β-actin) primary antibody overnight with gentle shaking at 4° C. After washing with TBST for 10 min, the PVDF membrane was incubated with secondary antibody (1:5000) in 5% TBST-Blotto for 90 min. The membrane was washed with TBST for 10 min, incubated with 10 ml of chemiluminescence substrate (PerkinElmer) for 1.0 min, and exposed to Kodak X-OMAT AR autoradiography film (Eastman Kodak, Rochester, N.Y.).

Q: For `COC(=O)[C@@]1(C)CCC2(C)CC[C@]3(C)C(=CC(=O)[C@@H]4C5(C)C=C(I)C(=O)C(C)(C)[C@@H]5CCC43C)C2C1` (stereo partly drawn) [β-IDODA-Me, Methyl 2-iodo-3,11-dioxo-18β-oleana-1,12-diene-30-oate], which “Sp1, Sp3 and Sp4 expression in liver” value [1] is on record?
A: unaffected

Q: With `COc1cccc(-c2cc(=O)c3ccccc3o2)c1N` [PD98059, reference compound] as the compound, how does the “effect of kinase inhibitor on induction of ATF-3 by β-CDODA-Me” value [2] read?
A: blocked induction

Q: What about the “effect of kinase inhibitor on induction of NAG-1 by β-CDODA-Me” value [2] of the same compound?
A: inhibited induction

Q: What about the “effect on β-CDODA-Me downregulation of cyclin D1 and induction of p21” value [2] of the same compound?
A: partially blocked

Q: And the “effect on β-CDODA-Me-induced p21-luc(101) luciferase activity” value [3]?
A: inhibited this response

Q: With `COC(=O)[C@]12CCC(C)(C)C[C@H]1[C@H]1C(=O)C=C3[C@@]4(C)C=C(C#N)C(=O)C(C)(C)[C@@H]4CC[C@@]3(C)[C@]1(C)CC2` [CDDO-Me] as the compound, how does the “luciferase activity with GAL4-PPARγ/GAL4-Luc” value [4] read?
A: induced luciferase activity

Q: What about the “interactions between VP-PPARγ and GAL4-coactivator/corepressor chimeras (SRC1, SRC2, SRC3, PGC1, TRAP220, CARM1, SMRT)” value [5] of the same compound?
A: induced interactions

Q: What about the caveolin-1 protein expression [6] of the same compound?
A: induce caveolin-1 protein
